Non-standard residues stand in square brackets, D forms with d. No end group written: not given here. sY = N[C@@H](Cc1ccc(OS(=O)(=O)O)cc1)C(=O)O
Legend:
DmGPCR9 [1] = test: [35S]GTPγS binding assay, membranes of transfected CHO cells; type: biochemical, Drosophila melanogaster; settings: membranes from CHO cells transfected with DmGPCR9
Procedure: The transfected cells were washed once with ice-cold Dulbecco's phosphate buffered saline (PBS), 5 ml per 10 cm plate, and scraped into 5 ml of the same buffer. Cell suspensions from multiple plates were combined and centrifuged at 500×g for 10 min at 4° C. The cell pellet was reconstituted in ice-cold TEE (25 mM TRIS, 5 mM EGTA, 5 mM EDTA). Convenient aliquots were snap-frozen in liquid nitrogen and stored at −70° C. After thawing, the cells were homogenized and centrifuged at 4° C., 500×g for 5 minutes to pellet nuclei and unbroken cells. The supernatant was centrifuged at 47,000×g for 30 minutes at 4° C. […] Membrane protein concentration was determined using the BCA Protein Assay Reagent from Pierce (Rockford, Ill.) and BSA as standard. […]
Ligand-induced stimulation of [^35S]GTPγS binding was expressed as fold increase over the basal activity with no ligand added. Each treatment was run either in triplicate, or, on occasion, in duplicate, and the binding (cpm) was calculated as means +/− standard deviations. Dose-response curves for the receptor/ligand systems were analyzed using a non-linear least square SAS model, y=Bmax X/(Kd+X). Other dose-response curves were analyzed using Prism (GraphPad Software, Inc. San Diego, Calif.) and the following equation y=Bottom+(Top−Bottom)/(1+10^LogEC50-X). […]

DmGPCR9 [2] = test: calcium mobilization assay (FLIPR); type: cell-based, Drosophila melanogaster; settings: given in words
Procedure: Changes in intracellular calcium levels are another recognized indicator of G protein-coupled receptor activity, and such assays can be employed to screen for modulators of DmGPCR activity. For example, CHO cells stably transfected with a DmGPCR expression vector are plated at a density of 4×10^4 cells/well in Packard black-walled, 96-well plates specially designed to discriminate fluorescence signals emanating from the various wells on the plate. The cells are incubated for 60 minutes at 37° C. in modified Dulbecco's PBS (D-PBS) containing 36 mg/L pyruvate and 1 g/L glucose and one of four calcium indicator dyes (Fluo-3™ AM, Fluo-4™ AM, Calcium Green™-1 AM, or Oregon Green™ 488 BAPTA-1 AM), each at a concentration of 4 μM. […]
A calcium response is initiated by the addition of one or more candidate receptor agonist compounds, calcium ionophore A23187 (10 μM; positive control), or ATP (4 μM; positive control). Fluorescence is measured by Molecular Device's FLIPR with an argon laser (excitation at 488 nm). […] Basal fluorescence of cells was measured for 20 seconds prior to addition of candidate agonist, ATP, or A23187, and the basal fluorescence level was subtracted from the response signal. The calcium signal is measured for approximately 200 seconds, taking readings every two seconds. […]

Chain of DmGPCR9 (as listed by the source): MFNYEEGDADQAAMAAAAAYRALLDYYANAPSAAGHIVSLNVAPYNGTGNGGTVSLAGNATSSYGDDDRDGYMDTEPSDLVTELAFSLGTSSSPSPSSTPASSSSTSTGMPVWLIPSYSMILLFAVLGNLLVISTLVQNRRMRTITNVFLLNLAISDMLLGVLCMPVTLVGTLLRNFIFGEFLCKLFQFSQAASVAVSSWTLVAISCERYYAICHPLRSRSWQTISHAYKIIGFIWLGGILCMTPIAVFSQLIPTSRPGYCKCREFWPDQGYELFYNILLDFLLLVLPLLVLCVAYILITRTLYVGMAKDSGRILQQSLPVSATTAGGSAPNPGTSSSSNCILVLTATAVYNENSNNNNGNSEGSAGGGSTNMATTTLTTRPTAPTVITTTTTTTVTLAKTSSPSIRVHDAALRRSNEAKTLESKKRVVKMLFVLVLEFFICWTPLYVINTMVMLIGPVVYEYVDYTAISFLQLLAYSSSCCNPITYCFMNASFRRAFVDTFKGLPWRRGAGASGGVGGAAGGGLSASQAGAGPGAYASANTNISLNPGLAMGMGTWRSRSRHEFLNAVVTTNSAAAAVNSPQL

In the case of “FDDY(SO3H)GHLRF-NH2 (FDD[sY]GHLRF-NH2; N-terminus assumed; SMILES CC(C)C[C@H](NC(=O)[C@H](Cc1c[nH]cn1)NC(=O)CNC(=O)[C@H](Cc1ccc(OS(=O)(=O)O)cc1)NC(=O)[C@H](CC(=O)O)NC(=O)[C@H](CC(=O)O)NC(=O)[C@@H](N)Cc1ccccc1)C(=O)N[C@@H](CCCNC(=N)N)C(=O)N[C@@H](Cc1ccccc1)C(N)=O)”, the GTPγS responses (DmGPCR9 [1]) was “no GTPγS responses” and the “EC50, calcium mobilization assay” value (DmGPCR9 [2]) was “low nanomolar range”.
